Experimental data reported in US20040214320A1, “Mammalian gamete and embryo culture media supplement and method of using same” (Vitrolife, Inc,, priority 2000, published 2004).
Marks after values point to notes of the source that are not given here.

What was measured:
Assay type in all cases: cell-based
mouse embryo = assay: Mouse embryo development in culture, 48 h in G1.2, with or without citrate
Experimental: Embryos were cultured at 37° C. in 6% CO2:5% O2:89% N2 in an embryo incubation volume of 10 embryos: 20 μl of medium. Embryos were cultured in medium G1.2 for 48 h.

outbred mouse embryo = assay: Outbred mouse embryo development in culture, fertilized eggs cultured 4 days (G1.2 48 h, then G2.2 48 h)
Experimental: Embryos were cultured at 37° C. in 6% CO2:5% O2:89% N2 in an embryo incubation volume of 10 embryos: 20 μl of medium. Embryos were cultured in medium G 1.2 for 48 h followed by 48 h of culture in medium G 2.2.
Initial experiments investigated replacing albumin purified from blood with HYN for outbred mouse embryo development in culture. Fertilized eggs were cultured for 4 days in one of 4 different concentrations of HYN. Embryos were cultured at 37° C. in 6% CO2:5% O2:89% N2 in an embryo incubation volume of 10 embryos: 20 μl of medium. Embryos were cultured in medium G1.2 for 48 h followed by 48 h of culture in medium G2.2. The negative control treatment was no protein.
Fertilized eggs were cultured for 4 days. Embryos were cultured at 37° C. in 6% CO2:5% O2:89% N2 in an embryo incubation volume of 10 embryos: 20 μl of medium. Embryos were cultured in medium G 1.2 for 48 h followed by 48 h of culture in medium G 2.2.
Embryos were cultured at 37° C. in 6% CO2:5% O2:89% N2 in an embryo incubation volume of 10 embryos: 20 μl of medium. Embryos were cultured in medium G1.2 for 48 h followed by 48 h of culture in medium G2.2.

CF1 mouse blastocysts = assay: Blastocyst attachment and outgrowth in culture following cryopreservation
Experimental: The ability of the blastocysts to outgrow in culture following cryopreservation was also assessed. The outgrowth of both the ICM and TE was scored between 0-3 where 0 represented no outgrowth and 3 represented extensive outgrowth.

cow embryos = assay: Cow embryo development in culture, fertilized eggs cultured 6 to 7 days (G1.2 72 h, then G2.2 72 h); details: Example 7, cow
Experimental: (§1) Fertilized eggs were cultured for 6 to 7 days. Embryos were cultured at 38.5° C. in 6% CO2:5% O2:89% N2 in 500 μl of medium. Embryos were cultured in medium G1.2 for 72 h followed by 72 h of culture in medium G2.2.
as §1
Fertilized eggs were cultured for 6 to 7 days. Embryos were cultured at 38.5° C. in 6% CO2:5% O2:89% N2 in 500 μl of medium. Embryos were cultured in medium G1.2 for 72 h, followed by 72 h of culture in medium G2.2. Blastocysts were either stained for cell numbers or frozen and subsequently thawed to assess survival.

[1] = citrate added to medium G1.2 with rHA and HYN
[2] = treatment +/+ (citrate in first 48 h / further 48 h), medium with rHA and HYN
[3] = treatment +/− (citrate in first 48 h / further 48 h), medium with rHA and HYN
[4] = treatment −/+ (citrate in first 48 h / further 48 h), medium with rHA and HYN
[5] = HYN 0.125 mg/ml, no protein, 4 days culture
[6] = HYN 0.5 mg/ml, no protein, 4 days culture
[7] = HYN 1 mg/ml, no protein, 4 days culture

Molecule: O=C(O)CC(O)(CC(=O)O)C(=O)O [citrate]
- % 8 cell (mouse embryo; [1]): 81.1* %
- % compacted (mouse embryo; [1]): 12.2* %
- Day 3 mean cell number (mouse embryo; [1]): 7.21 ± 0.13
- embryo development (mouse embryo; citrate added to medium containing rHA and fermented HYN): significant increase
- embryo development (outbred mouse embryo; Example 6, citrate added to medium with rHA and HYN, 96 h): significantly increased
- % ICM/Total (outbred mouse embryo; [2]): 30.4%
- Cell Number (outbred mouse embryo; [2]): 100.7
- Hatching (% of Total) (outbred mouse embryo; [2]): 18.2%
- Morula/Blastocyst (%) (outbred mouse embryo; [2]): 72.7%
- TE Number (outbred mouse embryo; [2]): 69.8
- Total Blastocyst (%) (outbred mouse embryo; [2]): 62.7%
- % ICM/Total (outbred mouse embryo; [3]): 30.7%
- Cell Number (outbred mouse embryo; [3]): 112.6
- Hatching (% of Total) (outbred mouse embryo; [3]): 16.8%
- ICM Number (outbred mouse embryo; [3]): 34.9
- Morula/Blastocyst (%) (outbred mouse embryo; [3]): 71.3%
- TE Number (outbred mouse embryo; [3]): 77.7
- Total Blastocyst (%) (outbred mouse embryo; [3]): 67.3%
- % ICM/Total (outbred mouse embryo; [4]): 34.5%
- Cell Number (outbred mouse embryo; [4]): 94.8
- Hatching (% of Total) (outbred mouse embryo; [4]): 23.2%
- ICM Number (outbred mouse embryo; [4]): 33.4
- Morula/Blastocyst (%) (outbred mouse embryo; [4]): 68.5%
- TE Number (outbred mouse embryo; [4]): 61.44
- Total Blastocyst (%) (outbred mouse embryo; [4]): 64.8%

Molecule: hyaluronan [HYN]
- development of the ICM (outgrowth) compared to human serum albumin (CF1 mouse blastocysts): increased
- % ICM/Total (outbred mouse embryo; [5]): 26.5 ± 0.6^ac %
- Blastocyst (outbred mouse embryo; [5]): 88.6^a
- Cell Number (outbred mouse embryo; [5]): 79.6 ± 1.9^bc
- Hatching (outbred mouse embryo; [5]): 57.1b^c
- ICM Number (outbred mouse embryo; [5]): 21.2 ± 0.8^bc
- TE Number (outbred mouse embryo; [5]): 58.7 ± 1.5^bc
- % ICM/Total (outbred mouse embryo; [6]): 28.3 ± 1.1^bc %
- Blastocyst (outbred mouse embryo; [6]): 100^a
- Cell Number (outbred mouse embryo; [6]): 64.2 ± 1.9^ac
- Hatching (outbred mouse embryo; [6]): 50^b
- ICM Number (outbred mouse embryo; [6]): 18.0 ± 0.7^ac
- TE Number (outbred mouse embryo; [6]): 46.7 ± 2.0^a
- % ICM/Total (outbred mouse embryo; [7]): 26.4 ± 0.9^ac %
- Blastocyst (outbred mouse embryo; [7]): 61.8^b
- Cell Number (outbred mouse embryo; [7]): 62.0 ± 2.7^ac
- Hatching (outbred mouse embryo; [7]): 23.5^a
- ICM Number (outbred mouse embryo; [7]): 17.5 ± 0.8^ac
- TE Number (outbred mouse embryo; [7]): 49.1 ± 2.5^a
- mouse embryo development (outbred mouse embryo; concentrations from 0.125 to 0.5 mg/ml): stimulated
- Total Blastocyst Day 6 (cow embryos; day 6): 16.9^b
- Total Blastocyst Day 7 (cow embryos; day 7): 30.4
